Some test systems named below: SK-MEL-28 melanoma; SF-539 CNS; HCT-116 colon; SK-MEL-2 melanoma; MALME-3M melanoma; NCI-H23 lung; SK-MEL-5 melanoma; SR leukemia.
Holding throughout (assay): inhibition of tumour cell growth, NCI panel, 48 h

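Tested at 5 concentrations; 48 h exposure; 96-well plates; endpoints linearly interpolated, else capped at highest concentration. At the GI50, growth is halved. TGI: concentration producing complete growth inhibition.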

In the case of `CC(C)(C)CC(C)(C)c1cc2c(O)c(c1)Cc1cc(C(C)(C)CC(C)(C)C)cc(c1O)Cc1cc(C(C)(C)CC(C)(C)C)cc(c1O)Cc1cc(C(C)(C)CC(C)(C)C)cc(c1O)Cc1cc(C(C)(C)CC(C)(C)C)cc(c1O)Cc1cc(C(C)(C)CC(C)(C)C)cc(c1O)Cc1cc(C(C)(C)CC(C)(C)C)cc(c1O)Cc1cc(C(C)(C)CC(C)(C)C)cc(c1O)C2`, the TGI in the experiment on SK-MEL-28 melanoma, with SF-539 CNS, with HCT-116 colon, in the experiment with SK-MEL-2 melanoma, with MALME-3M melanoma and in the experiment on NCI-H23 lung was more than 100 µM in each case. In the experiment with SK-MEL-5 melanoma, this compound returned a TGI of more than 100 µM.

`CCCCCCCCCCCc1cc(=O)c2c(O)cccc2o1`: the TGI in the experiment on SR leukemia, in the experiment on SK-MEL-28 melanoma, in the experiment with SF-539 CNS, with HCT-116 colon, in the experiment with SK-MEL-2 melanoma and with MALME-3M melanoma was more than 100 µM in each case. The TGI in the experiment on NCI-H23 lung and in the experiment with SK-MEL-5 melanoma was more than 100 µM throughout.

Turning to `CC1=CC[C@@H]2C(=O)C=CC=C[C@H]12.[C-]#[O+].[C-]#[O+].[C-]#[O+].[Fe]`, the GI50 in the experiment on SR leukemia, in the experiment on SK-MEL-28 melanoma, in the experiment with SF-539 CNS, in the experiment on HCT-116 colon, in the experiment on SK-MEL-2 melanoma and in the experiment with MALME-3M melanoma was more than 100 µM throughout. Also, the GI50 in the experiment on NCI-H23 lung and with SK-MEL-5 melanoma was more than 100 µM each time. In addition, the TGI in the experiment with SR leukemia, in the experiment with SK-MEL-28 melanoma, with SF-539 CNS, in the experiment with HCT-116 colon, in the experiment on SK-MEL-2 melanoma and in the experiment on MALME-3M melanoma was more than 100 µM each time. In addition, the TGI with NCI-H23 lung and with SK-MEL-5 melanoma was more than 100 µM in each case.

With `COc1cc2ccnc(-c3n[nH]c4cc(OC)c(OC)cc34)c2cc1OC`, the TGI in the experiment with SR leukemia, in the experiment on SK-MEL-28 melanoma, in the experiment with SF-539 CNS, in the experiment on HCT-116 colon, in the experiment on SK-MEL-2 melanoma and with MALME-3M melanoma was more than 100 µM throughout. Moreover, the TGI in the experiment with NCI-H23 lung and with SK-MEL-5 melanoma was more than 100 µM throughout.

For the compound `O=C(/C=C/c1ccco1)N1CCN(Cc2ccccc2)CC1`, the TGI in the experiment with SR leukemia, in the experiment with SK-MEL-28 melanoma, in the experiment on SF-539 CNS, in the experiment on HCT-116 colon, in the experiment on NCI-H23 lung and with SK-MEL-5 melanoma was more than 100 µM in each case.

On to `COC(=O)c1ccc(N/C=C(/C#N)c2ccsc2)cc1`, for which the TGI in the experiment with SR leukemia was more than 100 µM; in the experiment with SK-MEL-28 melanoma, 45.6 µM; in the experiment with SF-539 CNS it was 32.3 µM; with HCT-116 colon, 21.8 µM; in the experiment with SK-MEL-2 melanoma, 50.7 µM; in the experiment with MALME-3M melanoma it was 36.2 µM. In the experiment with NCI-H23 lung, this compound registered a TGI of 24.5 µM.

Regarding `COc1ccccc1NC(=O)C1=C(C)NC(C)=C(C(=O)Nc2ccccc2OC)C1c1ccc(C2C(C(=O)Nc3ccccc3OC)=C(C)NC(C)=C2C(=O)Nc2ccccc2OC)cc1`, the TGI with SR leukemia came out at 9.93 µM; in the experiment with SK-MEL-28 melanoma, 6.45 µM; with SF-539 CNS, 3.24 µM; with HCT-116 colon, 2.7 µM; in the experiment on SK-MEL-2 melanoma it was 5.77 µM; with MALME-3M melanoma, 7.94 µM. In addition, the TGI was 7.52 µM in the experiment with NCI-H23 lung and 8.14 µM with SK-MEL-5 melanoma.

Turning to `CN(C)C(=S)/N=C(\N)N(C)C`, the TGI in the experiment with SR leukemia, with SK-MEL-28 melanoma, in the experiment on SF-539 CNS, in the experiment with HCT-116 colon, in the experiment on SK-MEL-2 melanoma and with MALME-3M melanoma was more than 100 µM each time. In addition, the TGI with NCI-H23 lung and in the experiment on SK-MEL-5 melanoma was more than 100 µM throughout.

In the case of `CCOc1ccc2c(c1)[n+]([O-])c(-c1ccc([N+](=O)[O-])cc1)c(N)[n+]2[O-]`, the TGI with SR leukemia, in the experiment on SK-MEL-28 melanoma, in the experiment on SF-539 CNS, in the experiment with HCT-116 colon, with SK-MEL-2 melanoma and in the experiment with MALME-3M melanoma was more than 100 µM each time. In addition, the TGI with NCI-H23 lung and in the experiment on SK-MEL-5 melanoma was more than 100 µM in each case.

For `OCC(O)C(OC1OC(CO)C(O)C(O)C1O)c1nn(-c2ccc(Cl)cc2)c2nc3cc(Cl)c(Cl)cc3nc12` (stereo not given), the TGI in the experiment with SR leukemia, in the experiment on SK-MEL-28 melanoma, with SF-539 CNS, with HCT-116 colon, in the experiment with MALME-3M melanoma and in the experiment on NCI-H23 lung was more than 100 µM throughout.

Consider `O=C(CC(=O)c1cccc2ccccc12)C(=O)Nc1nccs1`, for which the TGI with SR leukemia, with SK-MEL-28 melanoma, in the experiment with SF-539 CNS, in the experiment with HCT-116 colon, in the experiment with SK-MEL-2 melanoma and with MALME-3M melanoma was more than 100 µM in each case. Moreover, the TGI with NCI-H23 lung and in the experiment with SK-MEL-5 melanoma was more than 100 µM in each case.

Consider `COC(=O)CCC(=O)Nc1cc(C)ccc1C`, for which the TGI in the experiment on SK-MEL-28 melanoma, in the experiment on SF-539 CNS, with HCT-116 colon, with SK-MEL-2 melanoma, in the experiment on MALME-3M melanoma and in the experiment with NCI-H23 lung was more than 100 µM in each case. Also, the TGI in the experiment with SK-MEL-5 melanoma was more than 100 µM.

As for `NC(=S)N/N=C1/C(=O)N(c2ccccc2)C(=O)C1C(=O)Nc1ccccc1` (stereo not given), the TGI with SR leukemia, in the experiment on SK-MEL-28 melanoma, with SF-539 CNS, with HCT-116 colon, in the experiment with SK-MEL-2 melanoma and in the experiment with MALME-3M melanoma was more than 100 µM in each case. For the same compound, the TGI in the experiment on NCI-H23 lung and in the experiment on SK-MEL-5 melanoma was more than 100 µM in each case.

As to `C=CC(=O)OCCCS(=O)(=O)[O-].C=CC(=O)OCCCS(=O)(=O)[O-].NC1CCCCC1N.[Pt+4]`, the GI50 with SK-MEL-28 melanoma, with SF-539 CNS, in the experiment with HCT-116 colon, in the experiment with SK-MEL-2 melanoma, with MALME-3M melanoma and in the experiment on NCI-H23 lung was more than 25 µM throughout. Also, in the experiment with SK-MEL-5 melanoma, the GI50 was more than 25 µM. The TGI with SK-MEL-28 melanoma, in the experiment with SF-539 CNS, with HCT-116 colon, with SK-MEL-2 melanoma, in the experiment with MALME-3M melanoma and in the experiment with NCI-H23 lung was more than 25 µM throughout. In the experiment on SK-MEL-5 melanoma, this compound registered a TGI of more than 25 µM.

With `CCOC(=O)C1=C(Nc2cccc3ccccc23)OCC1=O`, the TGI with SR leukemia, with SK-MEL-28 melanoma, in the experiment with SF-539 CNS, in the experiment with HCT-116 colon, with SK-MEL-2 melanoma and with MALME-3M melanoma was more than 100 µM throughout. Moreover, the TGI with NCI-H23 lung and in the experiment with SK-MEL-5 melanoma was more than 100 µM throughout.

Turning to `C#CCOCn1cnc2c(N)ncnc21`, the TGI in the experiment with SR leukemia, in the experiment on SK-MEL-28 melanoma, in the experiment on SF-539 CNS, in the experiment with HCT-116 colon, with SK-MEL-2 melanoma and with MALME-3M melanoma was more than 100 µM each time. Also, the TGI in the experiment on NCI-H23 lung and in the experiment on SK-MEL-5 melanoma was more than 100 µM throughout.

Regarding `Nc1ncnc2c1N=CN(Oc1ccccc1)N2`, the TGI in the experiment on SR leukemia is more than 100 µM; in the experiment with SK-MEL-28 melanoma it was more than 100 µM; with SF-539 CNS it was more than 100 µM; in the experiment with HCT-116 colon, more than 100 µM; with SK-MEL-2 melanoma it was more than 100 µM; in the experiment with MALME-3M melanoma it was 32.2 µM. For the same compound, the TGI in the experiment with NCI-H23 lung and in the experiment on SK-MEL-5 melanoma was more than 100 µM in each case.

Take `CC(C)CCCC(C)[C@H]1CCC2C3CC=C4C[C@@H](OC(=O)CC(CC(=O)[O-])C(=O)[O-])CC[C@]4(C)C3CC[C@@]21C.N.N.[Pt+4]` (stereo not given in full): the GI50 with SK-MEL-28 melanoma, in the experiment with SF-539 CNS, in the experiment with HCT-116 colon and in the experiment with SK-MEL-5 melanoma was more than 100 µM throughout. For the same compound, the TGI in the experiment on SK-MEL-28 melanoma, with SF-539 CNS, in the experiment with HCT-116 colon and with SK-MEL-5 melanoma was more than 100 µM each time.

On to `CNC(=O)NCCCCC(NC(=O)OCc1ccccc1)C(=O)OCc1ccccc1` (stereo not given), for which the TGI was 61.4 µM with SR leukemia; 60.6 µM with SK-MEL-28 melanoma; 38.5 µM in the experiment on SF-539 CNS; more than 100 µM with HCT-116 colon; 61.1 µM with SK-MEL-2 melanoma; 47 µM in the experiment with MALME-3M melanoma. Also, the TGI in the experiment on NCI-H23 lung is 67.4 µM; in the experiment on SK-MEL-5 melanoma, more than 100 µM.

Take `CC(C)(C)c1cc(C#N)c2c(c1)C(=O)OC2(c1ccccc1)c1ccccc1C#N` (stereo not given): the TGI with SR leukemia, with SK-MEL-28 melanoma, in the experiment on SF-539 CNS, in the experiment on HCT-116 colon, with SK-MEL-2 melanoma and with MALME-3M melanoma was more than 100 µM each time. The compound further returned a TGI in the experiment with NCI-H23 lung of more than 100 µM.

In the case of `CC1=C(C(=O)NCc2ccccc2)C(c2ccc(N(C)C)cc2)C(C(=O)NCc2ccccc2)=C(C)N1`, the TGI in the experiment on SK-MEL-28 melanoma, with SF-539 CNS, with HCT-116 colon, in the experiment with SK-MEL-2 melanoma, with MALME-3M melanoma and in the experiment on NCI-H23 lung was more than 100 µM throughout. The compound further showed a TGI in the experiment with SK-MEL-5 melanoma of more than 100 µM.

Consider `CC/C(=N/O)C(C)C(=O)CCC(=O)Nc1ccc(Cl)cc1` (stereo not given), for which the TGI in the experiment with SK-MEL-28 melanoma, in the experiment on SF-539 CNS, in the experiment with HCT-116 colon, with SK-MEL-2 melanoma, in the experiment on MALME-3M melanoma and in the experiment on NCI-H23 lung was more than 100 µM each time. The TGI in the experiment on SK-MEL-5 melanoma was more than 100 µM.

The record behind these values is PubChem BioAssay (NCI).
